Results as given in ChEMBL document CHEMBL4689842, “EUbOPEN Chemogenomics Library wave 1” (2021).

Key:
Format in all cases: toxicity, cell-based
HEK-293T = assay: Incucyte cell viability with HEK293T; conditions: human, 10 µM, compound concentration 10 uM
Fibroblast = assay: Incucyte cell viability with human fibroblast; conditions: 10 µM, compound concentration 10 uM
U2OS = assay: Incucyte cell viability with U2OS; conditions: human, 10 µM, compound concentration 10 uM
[1] = 0 h, replicate number 1, timepoint 0 hours
[2] = 0 h, replicate number 2, timepoint 0 hours
[3] = 6 h, replicate number 1, timepoint 6 hours
[4] = 12 h, replicate number 1, timepoint 12 hours
[5] = 18 h, replicate number 1, timepoint 18 hours
[6] = 24 h, replicate number 1, timepoint 24 hours
[7] = 6 h, replicate number 2, timepoint 6 hours
[8] = 12 h, replicate number 2, timepoint 12 hours
[9] = 18 h, replicate number 2, timepoint 18 hours
[10] = 24 h, replicate number 2, timepoint 24 hours
Also: filed as whole numbers so only -1 and 0 and 1 occur.

## O=c1nc(-c2ccccn2)sc2ccccc12 [BTZO-1]
HEK-293T; [1]
  Growth Rate: 0
HEK-293T; [2]
  Growth Rate: 1
HEK-293T; [3]
  Growth Rate: 1
HEK-293T; [4]
  Growth Rate: 1
HEK-293T; [5]
  Growth Rate: 1
HEK-293T; [6]
  Growth Rate: 1
Fibroblast; [1]
  Growth Rate: 1
Fibroblast; [2]
  Growth Rate: 0
Fibroblast; [3]
  Growth Rate: 0
Fibroblast; [7]
  Growth Rate: 1
Fibroblast; [4]
  Growth Rate: 0
Fibroblast; [8]
  Growth Rate: 1
Fibroblast; [5]
  Growth Rate: 0
Fibroblast; [9]
  Growth Rate: 1
Fibroblast; [6]
  Growth Rate: 0
Fibroblast; [10]
  Growth Rate: 1
U2OS; [1]
  Growth Rate: 0
U2OS; [3]
  Growth Rate: 1
U2OS; [4]
  Growth Rate: 0
U2OS; [8]
  Growth Rate: 1
U2OS; [5]
  Growth Rate: 1
U2OS; [9]
  Growth Rate: 0
U2OS; [6]
  Growth Rate: 1
U2OS; [10]
  Growth Rate: 0

## Clc1cccc(-c2nnnn2Cc2cccnc2)c1Cl
HEK-293T; [1]
  Growth Rate: 1
HEK-293T; [2]
  Growth Rate: 0
HEK-293T; [3]
  Growth Rate: 1
HEK-293T; [7]
  Growth Rate: 0
HEK-293T; [4]
  Growth Rate: 1
HEK-293T; [5]
  Growth Rate: 1
HEK-293T; [6]
  Growth Rate: 1
HEK-293T; [10]
  Growth Rate: 0
Fibroblast; [1]
  Growth Rate: 0
Fibroblast; [3]
  Growth Rate: 1
Fibroblast; [7]
  Growth Rate: 0
Fibroblast; [4]
  Growth Rate: 0
Fibroblast; [5]
  Growth Rate: 0
Fibroblast; [6]
  Growth Rate: 0
U2OS; [3]
  Growth Rate: 1
U2OS; [7]
  Growth Rate: 0
U2OS; [4]
  Growth Rate: 0
U2OS; [8]
  Growth Rate: 1
U2OS; [5]
  Growth Rate: 0
U2OS; [9]
  Growth Rate: 1
U2OS; [6]
  Growth Rate: 1

## O=S(=O)(c1ccccc1)N(CC(F)(F)F)c1ccc(C(O)(C(F)(F)F)C(F)(F)F)cc1 [T091317]
HEK-293T; [1]
  Growth Rate: 0
HEK-293T; [3]
  Growth Rate: 0
HEK-293T; [7]
  Growth Rate: 1
HEK-293T; [4]
  Growth Rate: 0
HEK-293T; [5]
  Growth Rate: 0
HEK-293T; [6]
  Growth Rate: 0
Fibroblast; [1]
  Growth Rate: 0
Fibroblast; [3]
  Growth Rate: 0
Fibroblast; [4]
  Growth Rate: 0
Fibroblast; [5]
  Growth Rate: 0
Fibroblast; [6]
  Growth Rate: 0
U2OS; [1]
  Growth Rate: 0
U2OS; [4]
  Growth Rate: 1
U2OS; [5]
  Growth Rate: 1
U2OS; [6]
  Growth Rate: 1

## Cc1cc(F)c(C(=O)Nc2cccc(-c3nncn3C(C)C)n2)cc1-n1cnc(C2CC2)c1 [SELONSERTIB]
HEK-293T; [2]
  Growth Rate: 1
HEK-293T; [3]
  Growth Rate: 0
HEK-293T; [4]
  Growth Rate: 0
HEK-293T; [5]
  Growth Rate: 0
HEK-293T; [6]
  Growth Rate: 0
Fibroblast; [1]
  Growth Rate: 0
Fibroblast; [4]
  Growth Rate: 1
Fibroblast; [5]
  Growth Rate: 1
Fibroblast; [6]
  Growth Rate: 1
U2OS; [1]
  Growth Rate: 0
U2OS; [3]
  Growth Rate: 0
U2OS; [4]
  Growth Rate: 0
U2OS; [5]
  Growth Rate: 0
U2OS; [6]
  Growth Rate: 1
U2OS; [10]
  Growth Rate: 0

## CCc1cc(C(C)=O)c(O)cc1OCCCCCC(C)(C)c1nn[nH]n1 [LY-255283]
HEK-293T; [1]
  Growth Rate: 0
HEK-293T; [3]
  Growth Rate: 1
HEK-293T; [7]
  Growth Rate: 0
HEK-293T; [4]
  Growth Rate: 0
HEK-293T; [5]
  Growth Rate: 0
HEK-293T; [6]
  Growth Rate: 0
HEK-293T; [10]
  Growth Rate: 1
Fibroblast; [1]
  Growth Rate: 0
Fibroblast; [3]
  Growth Rate: 0
Fibroblast; [4]
  Growth Rate: 0
Fibroblast; [5]
  Growth Rate: 0
Fibroblast; [6]
  Growth Rate: 0
U2OS; [1]
  Growth Rate: 0
U2OS; [7]
  Growth Rate: 0
U2OS; [4]
  Growth Rate: 1
U2OS; [8]
  Growth Rate: 0
U2OS; [5]
  Growth Rate: 1
U2OS; [9]
  Growth Rate: 0
U2OS; [6]
  Growth Rate: 1
U2OS; [10]
  Growth Rate: 0

## Cc1c(C(=O)NC2CCCCC2)sc2nc3ccc(N)cc3n12.Cl
HEK-293T; [1]
  Growth Rate: 0
HEK-293T; [3]
  Growth Rate: 0
HEK-293T; [4]
  Growth Rate: 0
HEK-293T; [5]
  Growth Rate: 0
HEK-293T; [6]
  Growth Rate: 0
Fibroblast; [1]
  Growth Rate: 0
Fibroblast; [3]
  Growth Rate: 0
Fibroblast; [4]
  Growth Rate: 1
Fibroblast; [9]
  Growth Rate: 1
Fibroblast; [6]
  Growth Rate: 1
U2OS; [1]
  Growth Rate: 0
U2OS; [3]
  Growth Rate: 1
U2OS; [7]
  Growth Rate: 0
U2OS; [4]
  Growth Rate: 1
U2OS; [5]
  Growth Rate: 1
U2OS; [6]
  Growth Rate: 1

## CNCCC(Oc1ccc(C(F)(F)F)cc1)c1ccccc1.Cl (configuration not stated) [FLUOXETINE HYDROCHLORIDE]
HEK-293T; [2]
  Growth Rate: 0
HEK-293T; [3]
  Growth Rate: 0
HEK-293T; [7]
  Growth Rate: 1
HEK-293T; [4]
  Growth Rate: 0
HEK-293T; [8]
  Growth Rate: 1
HEK-293T; [5]
  Growth Rate: 0
HEK-293T; [6]
  Growth Rate: 0
Fibroblast; [1]
  Growth Rate: 0
Fibroblast; [3]
  Growth Rate: 1
Fibroblast; [7]
  Growth Rate: 0
Fibroblast; [4]
  Growth Rate: 0
Fibroblast; [5]
  Growth Rate: 1
Fibroblast; [9]
  Growth Rate: 0
Fibroblast; [6]
  Growth Rate: 1
Fibroblast; [10]
  Growth Rate: 0
U2OS; [7]
  Growth Rate: 1
U2OS; [8]
  Growth Rate: 1
U2OS; [5]
  Growth Rate: 1
U2OS; [6]
  Growth Rate: 1

## COc1cc2c(cc1OCCCN1CCCC1)N=C(N)C21CCC1
HEK-293T; [1]
  Growth Rate: 0
Fibroblast; [1]
  Growth Rate: 0
Fibroblast; [8]
  Growth Rate: 0
Fibroblast; [5]
  Growth Rate: 1
Fibroblast; [6]
  Growth Rate: 1
U2OS; [1]
  Growth Rate: 0
U2OS; [3]
  Growth Rate: 1
U2OS; [4]
  Growth Rate: 1
U2OS; [5]
  Growth Rate: 1
U2OS; [6]
  Growth Rate: 1

## Cc1c(OCc2cccc(-c3ccc(C(=O)O)cc3)c2)cc2c(c1C)C(=O)C(C1CCCC1)C2 (configuration not stated)
HEK-293T; [1]
  Growth Rate: 0
HEK-293T; [3]
  Growth Rate: 0
HEK-293T; [4]
  Growth Rate: 0
HEK-293T; [5]
  Growth Rate: 0
HEK-293T; [6]
  Growth Rate: 0
HEK-293T; [10]
  Growth Rate: 1
Fibroblast; [1]
  Growth Rate: 0
Fibroblast; [3]
  Growth Rate: 0
Fibroblast; [4]
  Growth Rate: 0
Fibroblast; [5]
  Growth Rate: 0
Fibroblast; [6]
  Growth Rate: 0
U2OS; [1]
  Growth Rate: 0
U2OS; [4]
  Growth Rate: 1
U2OS; [5]
  Growth Rate: 1
U2OS; [6]
  Growth Rate: 1

## CCCc1nc2c(C)cc(-c3nc4ccccc4n3C)cc2n1Cc1ccc(-c2ccccc2C(=O)O)cc1
HEK-293T; [1]
  Growth Rate: 0
HEK-293T; [3]
  Growth Rate: 0
HEK-293T; [4]
  Growth Rate: 0
HEK-293T; [5]
  Growth Rate: 0
HEK-293T; [6]
  Growth Rate: 0
Fibroblast; [1]
  Growth Rate: 0
Fibroblast; [3]
  Growth Rate: 1
Fibroblast; [4]
  Growth Rate: 0
Fibroblast; [8]
  Growth Rate: 1
Fibroblast; [5]
  Growth Rate: 1
Fibroblast; [6]
  Growth Rate: 0
U2OS; [1]
  Growth Rate: 0
U2OS; [7]
  Growth Rate: 1
U2OS; [4]
  Growth Rate: 1
U2OS; [5]
  Growth Rate: 1
U2OS; [6]
  Growth Rate: 1
U2OS; [10]
  Growth Rate: 0
